The source of these data is ChEMBL document CHEMBL1629445, “Synthesis and evaluation of azetidinone analogues of combretastatin A-4 as tubulin targeting agents” (J Med Chem, 2010).

For orientation: IC50 means the midpoint of a concentration-inhibition curve. A lower IC50 goes with inhibition by little substance. One may read the GI50 as the concentration that inhibits growth by half. Low readings indicate greater sensitivity of the cells, high ones lower sensitivity of the cells.

The test system of test [1] is MCF7. Put plainly: cells. Particulars: Homo sapiens, MCF7, 72 h.
Test [2] has as its system MDA-MB-231. Nature of the test: Antiproliferative activity against human MDA-MB-231 cells after 72 hrs by MTT assay. Particulars: MDA-MB-231, 72 h. The class given is functional, cell-based. (In general: Tetrazolium dyes change colour on reduction, which living cells bring about.)
The nature of test [3]: Cytotoxicity against in CD1 mouse mammary epithelial cells after 72 hrs by alamar blue dye assay. The class given is cell-based. Conditions: CD1, Epithelial cell. (The colour change of resazurin is a common sign of viable cells or microbes.)
The nature of test [4]: Growth inhibition of human NCI60 cells. The class given is functional.

For `COc1ccc([C@@H]2[C@@H](c3ccc(F)c(F)c3)C(=O)N2c2cc(OC)c(OC)c(OC)c2)cc1`, the IC50 in test [1] worked out at 314 nM.
Same read-out and setting: the same measure for `COc1ccc([C@@H]2[C@@H](c3cccc(OC)c3)C(=O)N2c2cc(OC)c(OC)c(OC)c2)cc1`: 326 nM.
As to `COc1ccc([C@@H]2[C@@H](c3ccc(F)cc3)C(=O)N2c2cc(OC)c(OC)c(OC)c2)cc1[N+](=O)[O-]`, in test [1], half-maximal inhibition (IC50) required 1360 nM.
The same measure, in the same setting: the same measure for `COc1ccc([C@@H](Nc2cc(OC)c(OC)c(OC)c2)[C@@H](CO)c2ccccc2)cc1O`: 24600 nM; for `COc1ccc([C@@H]2[C@@H](c3ccccc3)C(=S)N2c2cc(OC)c(OC)c(OC)c2)cc1`: 720 nM; for `COC(=O)C(c1ccccc1)[C@H](Nc1cc(OC)c(OC)c(OC)c1)c1ccc(OC)c(O)c1` (some centres not stated): more than 100000 nM.
As for `COc1ccc([C@@H]2[C@@H](c3ccccc3)C(=O)N2c2cc(OC)c(OC)c(OC)c2)cc1O`, the IC50 in test [2] was 28.8 nM; in test [3], more than 10 µM; in test [1] it was 9.6 nM. In test [4], this compound returned a GI50 of 24 nM.
Turning to `COc1ccc([C@@H]2[C@@H](c3ccccc3)C(=O)N2c2cc(OC)c(OC)c(OC)c2)cc1N`, the figures for the IC50 in test [2] and in test [1] were 429 nM and 65.3 nM, respectively.
In turn, `COc1ccc([C@@H]2[C@@H](c3cc(OC)c(OC)c(OC)c3)C(=O)N2c2ccccc2)cc1` yielded an IC50 in test [1] of 43100 nM.
The same measure, in the same setting: the same measure for `COc1ccc([C@@H]2[C@@H](c3ccc(Cl)cc3)C(=O)N2c2cc(OC)c(OC)c(OC)c2)cc1`: 305 nM; for `COc1ccc(N2C(=O)[C@H](c3ccccc3)[C@H]2c2cc(OC)c(OC)c(OC)c2)cc1`: 43100 nM; for `COc1ccc([C@@H]2[C@@H](c3ccc(SC)cc3)C(=O)N2c2cc(OC)c(OC)c(OC)c2)cc1`: 448 nM.
In test [1], `COc1ccc([C@@H]2[C@@H](c3ccc(Cl)c(Cl)c3)C(=O)N2c2cc(OC)c(OC)c(OC)c2)cc1` gave an IC50 of 3360 nM.
Turning to `COc1ccc([C@@H]2[C@@H](c3ccc(F)cc3)C(=O)N2c2cc(OC)c(OC)c(OC)c2)cc1O`, the figures for the IC50 in test [2] and in test [1] were 107 nM and 65.7 nM, respectively.
As for `COc1ccc([C@@H]2[C@@H](c3ccc(Br)cc3)C(=O)N2c2cc(OC)c(OC)c(OC)c2)cc1`, the IC50 in test [1] was found to be 420 nM.
In the case of `COc1ccc([C@@H]2[C@@H](c3ccc(O)cc3)C(=O)N2c2cc(OC)c(OC)c(OC)c2)cc1`, the values for the IC50 in test [2] and in test [1] were 158 nM and 59.1 nM, respectively.
As for `COc1ccc([C@@H]2[C@@H](c3ccc(C(F)(F)F)cc3)C(=O)N2c2cc(OC)c(OC)c(OC)c2)cc1`, the IC50 in test [1] amounted to 1660 nM.
Take `COc1ccc([C@@H]2[C@@H](c3cccc(O)c3)C(=O)N2c2cc(OC)c(OC)c(OC)c2)cc1`: the 50% inhibitory concentration (IC50) in test [1] is 68.9 nM.
The same measure, in the same setting: the same measure for `COc1ccc([C@@H]2[C@@H](c3ccc(OC)c(OC)c3)C(=O)N2c2cc(OC)c(OC)c(OC)c2)cc1`: 223 nM; for `COc1ccc([C@@H]2[C@@H](c3ccccc3)C(=O)N2c2cc(OC)c(OC)c(OC)c2)cc1[N+](=O)[O-]`: 466 nM.
In the case of `COc1ccc([C@@H]2[C@@H](c3ccccc3)C(=O)N2c2cc(OC)c(OC)c(OC)c2)cc1`, the half-inhibitory concentration (IC50) in test [2] was 78.2 nM; in test [1], 34.4 nM.
`COc1ccc([C@@H]2[C@@H](c3ccc(OCc4ccccc4)cc3)C(=O)N2c2cc(OC)c(OC)c(OC)c2)cc1` had an IC50 in test [1] of 7990 nM.
On the same count and under the same terms, the same measure for `COc1ccc([C@@H]2[C@@H](c3cc(OC)c(OC)c(OC)c3)C(=O)N2c2cc(OC)c(OC)c(OC)c2)cc1`: 7120 nM.
For the compound `COc1ccc([C@@H]2[C@@H](c3ccc(O)cc3)C(=O)N2c2cc(OC)c(OC)c(OC)c2)cc1O`, the results for the IC50 in test [2], in test [3] and in test [1] were 176 nM, more than 10 µM and 0.8 nM, respectively.
Consider `COc1ccc([C@@H]2[C@@H](c3ccc(N)cc3)C(=O)N2c2cc(OC)c(OC)c(OC)c2)cc1`, for which the IC50 stood at 224 nM in test [2] and 50.8 nM in test [1].
In the case of `COc1ccc([C@@H]2[C@@H](c3ccc(F)cc3)C(=O)N2c2cc(OC)c(OC)c(OC)c2)cc1`, the IC50 in test [2] was found to be 228 nM; in test [1], 42.3 nM.
On to `COc1ccc([C@H]2C(=O)N(c3cc(OC)c(OC)c(OC)c3)[C@@H]2c2ccc(OC)cc2)cc1`, for which the GI50 in test [4] was 210 nM. This compound also gave an IC50 in test [1] of 182 nM.
With `COc1ccc(/C=C\c2cc(OC)c(OC)c(OC)c2)cc1O` [COMBRETASTATIN A4], the IC50 in test [2] was 43 nM; in test [3], more than 10 µM; in test [1] it was 5.2 nM.
`COc1ccc([C@@H]2[C@@H](c3ccc([N+](=O)[O-])cc3)C(=O)N2c2cc(OC)c(OC)c(OC)c2)cc1` displayed an IC50 in test [1] of 486 nM.
Turning to `COc1ccc([C@@H]2[C@@H](c3ccc(F)cc3)C(=O)N2c2cc(OC)c(OC)c(OC)c2)cc1N`, the IC50 was determined as 80.8 nM in test [2] and 55.3 nM in test [1].
Turning to `COc1ccc([C@@H]2[C@@H](c3ccccc3OC)C(=O)N2c2cc(OC)c(OC)c(OC)c2)cc1`, in test [1], inhibition was half-maximal at 700 nM (IC50).
In the case of `COc1ccc([C@@H]2[C@@H](c3ccc(C)cc3)C(=O)N2c2cc(OC)c(OC)c(OC)c2)cc1`, in test [1], the IC50 worked out at 315 nM.
Regarding `COc1ccc([C@@H]2[C@@H](c3ccc(N)cc3)C(=O)N2c2cc(OC)c(OC)c(OC)c2)cc1O`, half-maximal inhibition in test [1] (IC50) required 4.5 nM.
Still for that read-out and setting: the same measure for `COc1ccc([C@@H]2[C@@H](c3ccc(N)cc3)C(=O)N2c2cc(OC)c(OC)c(OC)c2)cc1N`: 30.9 nM.
Consider `COc1ccc([C@@H]2[C@@H](c3ccc(O)cc3)C(=O)N2c2cc(OC)c(OC)c(OC)c2)cc1N`, for which the IC50 in test [2] was found to be 1680 nM; in test [1] it was 39.5 nM.
Consider `COc1ccc([C@H]2C(=O)N(c3ccccc3)[C@@H]2c2cc(OC)c(OC)c(OC)c2)cc1`, for which, in test [1], the IC50 came to 37800 nM.
